The text below walks through data of patent US20210030673A1, “Method and a Compound for Preventing Mammalian Cancer Cell Proliferation and for Treating Cancer” (Oy Granula Ab Ltd., priority 2019, published 2021).

As usually defined, the IC50 is the concentration at which inhibition is half-maximal. Usually viability stands for a per cent measure of how many cells are alive, often set against a control. High values mean better survival, low ones a greater loss of cells.

In data set [1] the test system is metastatic prostate cancer (PC-3) cells. The data set is described as follows: Live-cell imaging of PC-3 proliferation, BA or BOA. The data set is classed as cell-based, human. Particulars: 48-hour treatment. The method, then:
(§1) One day prior to the treatment, the cells were counted and plated on 24-well plates (Falcon) and incubated overnight at +37° C. (5% CO2). The following day, the cells were treated betulinic acid (BA) or betulonic acid (BOA) in concentrations of 0, 10, 50, 70, 100, and 150 μM. 1% DMSO was used to control for the effects of the solvent. All samples were made in triplicates. The cells were imaged for 48 h with 2 h intervals (9 images per well) using IncuCyte S3 Live-Cell Analysis System (Essen BioScience).

The test system is the same in data set [2]. The data set is described as follows: Cytotoxicity assay of BA and BOA (Cell Counting Kit-8), PC-3. The following applies: read-out: IC50-value, cell viability, PC-3. A general note: Tetrazolium assays rely on reduction of a dye to a coloured formazan, in cell work by metabolically active cells.
Procedure: (§2) Cells were seeded with 5000 cells/well on a 96-well plate (Falcon) in RPMI-1640 medium (PC-3 cells) or DMEM medium (WM-266-4 cells) supplemented with 10% fetal bovine serum, 2 mM L-glutamine, 100 U/ml penicillin, and 100 μg/ml streptomycin. The cells were incubating overnight in +37° C., 5% CO2 for the cells to adhere to the plate. The following day, cells were treated with BA or BOA (prepared from stock solutions using DMSO as solvent) in concentrations of 0-200 μM in complete medium in replicate samples and incubated for 48 h. The old medium was thereafter discarded and substituted with 100 μL 10% Cell Counting Kit-8 reagent (Dojindo Molecular Technologies) diluted in serum-free RPMI-1640 medium. The samples were incubated for an additional 1 h prior to analyzing cell viability by measuring the absorbance at 450 nm using a microplate reader (Hidex Sense) according to manufacturer's protocol. Non-treated cells were used as a negative control. 1% DMSO was used to control for effect of solvent. All samples contained 1% or less DMSO. The experiment was repeated at least three independent times for accurate cytotoxicity analysis. The IC50-value was calculated using GraphPad Prism 6 software.
Experiment in data set [3]: as above
The following applies: human, PC-3 metastatic prostate cancer cells.
Procedure: as §2

In data set [4] the test system is metastatic melanoma (WM-266-4) cells. Nature of the data set: Cytotoxicity assay of BA and BOA (Cell Counting Kit-8), WM-266-4. The following applies: read-out: IC50-value, cell viability, WM-266-4.
Procedure: as §2
Experiment in data set [5]: as above
Particulars: human, WM-266-4 metastatic melanoma cells.
Procedure: as §2

In data set [6] the test system is normal human dermal fibroblast (HDF) cells.
Source text: Results are mean values from three independent experiments (±SEM).
For data set [7], the system named is metastatic melanoma (WM-266-4) cells. Nature of the data set: Live-cell imaging of WM-266-4 proliferation, BOA. The data set is classed as cell-based, human. Particulars: 48-hour treatment. The method, then: as §1
For data set [8] the test system is unchanged. Particulars: 100 µM.
Procedure: as §2
Data set [9] has as its system metastatic prostate cancer (PC-3) cells. The following applies: 100 µM.
Procedure: as §2
The mark [10] stands for this setting: 48 h treatment, complete medium.

Where two headings read alike, the source gives them in different places.

With `C=C(C)[C@@H]1CC[C@]2(C(=O)O)CC[C@]3(C)[C@H](CC[C@@H]4[C@@]5(C)CC[C@H](O)C(C)(C)[C@@H]5CC[C@]43C)[C@@H]12` [BA, betulinic acid], in data set [1], the “concentration giving maximum decrease of PC-3 proliferation” value stood at 50 µM. Further, the concentration for half-maximal inhibition (IC50) is 68 µM in data set [2] (Homo sapiens, PC-3, 48 h) and 64.7 µM in data set [4] (Homo sapiens, WM 266-4, 48 h). Also, the viability at 48 h, 100 µM in [3] and in data set [5] was ~0% throughout. The “effect on HDF cell proliferation” value in [6] is reported as “neither BA or BOA had any significant effects on HDF cells”.

Regarding `C=C(C)[C@@H]1CC[C@]2(C(=O)O)CC[C@]3(C)[C@H](CC[C@@H]4[C@@]5(C)CCC(=O)C(C)(C)[C@@H]5CC[C@]43C)[C@@H]12` [BOA, betulonic acid], in data set [1], the “concentration giving maximum decrease of PC-3 proliferation” value came out at 50 µM. The IC50 was found to be 78.5 µM in [2] (setting [10]) and 39.8 µM in data set [4] (setting [10]). Moreover, the “concentration giving maximal decrease in WM-266-4 proliferation” value in data set [7] was determined as 50 µM. Besides, the “viability of WM-266-4 cells” value in [8] is reported as “below 20%”. Moreover, the “effect on HDF cell proliferation” value in data set [6] is given as “neither BA or BOA had any significant effects on HDF cells”. In addition, in [9], the “viability of PC-3 cells” value is “below 20%”.
